Experimental data from publication PMC8593021, “Biophysical and functional characterization of the human TAS1R2 sweet taste receptor overexpressed in a HEK293S inducible cell line” (Scientific Reports, 2021).

Columns and labels:
hTAS1R2 [1] = biological target: T1, hTAS1R2 (Homo sapiens, UniProt Q8TE23); test: Intrinsic tryptophan fluorescence ligand binding to purified detergent-solubilized hTAS1R2; parameters: made in house; conditions: purified FLAG-tagged hTAS1R2 0.10 µM in PBS, 0.1% LMNG, 20 °C; λex 280 nm, λem 340 nm
T1 sequence (Q8TE23 20-839): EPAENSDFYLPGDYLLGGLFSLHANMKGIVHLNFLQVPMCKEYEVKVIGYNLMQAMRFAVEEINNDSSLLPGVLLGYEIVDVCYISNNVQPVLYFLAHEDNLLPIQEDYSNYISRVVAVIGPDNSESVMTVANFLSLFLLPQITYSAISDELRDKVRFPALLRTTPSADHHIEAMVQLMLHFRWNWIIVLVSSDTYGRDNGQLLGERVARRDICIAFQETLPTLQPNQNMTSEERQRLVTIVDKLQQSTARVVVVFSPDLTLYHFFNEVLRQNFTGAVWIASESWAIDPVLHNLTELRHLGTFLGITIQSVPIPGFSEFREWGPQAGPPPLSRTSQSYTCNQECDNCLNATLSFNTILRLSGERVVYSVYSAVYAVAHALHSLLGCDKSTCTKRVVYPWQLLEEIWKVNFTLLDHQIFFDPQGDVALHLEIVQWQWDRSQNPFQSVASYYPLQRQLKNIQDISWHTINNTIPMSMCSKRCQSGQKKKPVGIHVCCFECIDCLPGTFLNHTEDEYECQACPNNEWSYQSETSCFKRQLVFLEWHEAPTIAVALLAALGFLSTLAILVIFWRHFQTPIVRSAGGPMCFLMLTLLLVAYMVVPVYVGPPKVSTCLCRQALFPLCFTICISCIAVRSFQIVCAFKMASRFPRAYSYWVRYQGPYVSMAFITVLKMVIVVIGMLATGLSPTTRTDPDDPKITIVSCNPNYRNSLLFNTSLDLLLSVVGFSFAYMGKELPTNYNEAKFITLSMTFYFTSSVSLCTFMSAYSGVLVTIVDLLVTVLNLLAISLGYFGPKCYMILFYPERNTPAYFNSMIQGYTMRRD
Description: Intrinsic fluorescence spectra were recorded with a Cary Eclipse spectrofluorimeter (Varian Instruments, Les Ulis, France) equipped with a Peltier temperature control unit. The temperature was maintained at 20 °C. FLAG-tagged hTAS1R2 protein (0.10 µM in PBS, 0.1% LMNG buffer) was excited at 280 nm, and the emission spectra were recorded from 300 to 400 nm, with a 10 nm bandwidth for both excitation and emission in the presence and absence of ligands. The sweetener solutions were freshly prepared in PBS-0.1% LMNG buffer. Successive aliquots of ligand solutions were added to 400 µL of the FLAG-tagged hTAS1R2 solution. […] The fluorescence measurements were corrected for bleaching and nonspecific buffer quenching. The dissociation constants (Kd) were calculated from a plot of the fluorescence intensity measured at the maximum emission wavelength (340 nm) versus the concentration of total ligand obtained with a standard nonlinear regression method using SigmaPlot software (Systat Software Inc., San Jose, CA, USA). The reported Kd values are the average of triplicate measurements performed on at least three independently purified protein samples.

hTAS1R2 [2] = biological target: T1, hTAS1R2; test: Calcium assay (GCaMP6S) in HEK293T-Gα16gust44 cells transfected with hTAS1R2-FLAG alone; type: cell-based; conditions: HEK293T-Gα16gust44 cells transiently transfected with GCaMP6S and hTAS1R2-FLAG alone
Excerpt: We used a calcium imaging assay to establish dose–response curves for the sweet taste receptor hTAS1R2/hTAS1R3 and determine EC50 values for the sweet stimuli previously tested in spectrofluorimetric experiments. We cloned the cDNAs coding hTAS1R2 and hTAS1R3 subunits into pcDNA6 and pcDNA4 expression plasmids, respectively, and we added FLAG tag to C-terminus of each construct to measure protein expression level by immunocytochemistry as described previously. HEK293T cells stably transfected with Gα16gust44 were seeded at a density of 0.35 × 10^6 cells per well into 96-well black walled, clear bottom microtiter plates (Falcon) in high-glucose DMEM supplemented with 2 mM GlutaMAX, 10% dialyzed foetal bovine serum, penicillin/streptomycin and G418 (400 µg/mL) at 37 °C and 6.3% CO2, in a humidified atmosphere. After 48 h, the cells were transiently transfected with each TAS1R subunit (60 ng/well for each plasmid) and plasmid pGP-CMV-GCaMP6S (Addgene #40753, 50 ng per well) coding for a green fluorescent protein-based calcium indicator, using Fugene HD (0.4 µL/well). […] After excitation at 488 nm, calcium responses were recorded at 510 nm using a Molecular Devices FlexStation 3 system. […] Plots of the fluorescence variation amplitude versus concentration were fitted by four-parameter logistic nonlinear regression allowing us to calculate the EC50 values of activation.

hTAS1R2/hTAS1R3 = biological target: T2, hTAS1R2/hTAS1R3 (Homo sapiens, UniProt Q7RTX0+Q8TE23); test: Calcium assay (GCaMP6S) in HEK293T-Gα16gust44 cells transfected with hTAS1R2-FLAG and hTAS1R3-FLAG; type: cell-based; conditions: HEK293T-Gα16gust44 cells transiently transfected with GCaMP6S
T2 construct: expressed in transfected cells; host or cells: HEK293T cells stably expressing Gα16gust44, transiently transfected
T2 sequence (Q8TE23 20-839): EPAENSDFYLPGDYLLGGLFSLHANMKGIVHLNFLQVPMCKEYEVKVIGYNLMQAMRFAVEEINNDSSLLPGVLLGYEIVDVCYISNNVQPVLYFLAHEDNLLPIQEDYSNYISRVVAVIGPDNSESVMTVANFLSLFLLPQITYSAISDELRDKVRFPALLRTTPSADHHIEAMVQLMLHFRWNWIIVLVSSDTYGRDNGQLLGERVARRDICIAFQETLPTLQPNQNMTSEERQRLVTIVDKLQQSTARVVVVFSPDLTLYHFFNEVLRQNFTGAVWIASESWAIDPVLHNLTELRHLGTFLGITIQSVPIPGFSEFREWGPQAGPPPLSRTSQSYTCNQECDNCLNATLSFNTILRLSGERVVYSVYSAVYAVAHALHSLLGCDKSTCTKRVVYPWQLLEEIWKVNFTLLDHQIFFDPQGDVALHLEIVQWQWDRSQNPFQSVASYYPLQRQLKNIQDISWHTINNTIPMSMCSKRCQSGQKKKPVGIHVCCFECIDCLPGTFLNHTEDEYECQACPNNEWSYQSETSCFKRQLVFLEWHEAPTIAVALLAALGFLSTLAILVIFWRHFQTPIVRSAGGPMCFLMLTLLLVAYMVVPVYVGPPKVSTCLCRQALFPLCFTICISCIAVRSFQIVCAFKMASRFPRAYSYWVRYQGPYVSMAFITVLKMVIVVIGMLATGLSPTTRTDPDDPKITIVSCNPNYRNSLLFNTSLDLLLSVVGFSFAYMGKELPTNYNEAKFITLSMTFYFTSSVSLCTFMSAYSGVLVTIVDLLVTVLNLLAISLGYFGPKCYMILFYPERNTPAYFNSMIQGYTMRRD
T2 sequence (Q7RTX0 21-852): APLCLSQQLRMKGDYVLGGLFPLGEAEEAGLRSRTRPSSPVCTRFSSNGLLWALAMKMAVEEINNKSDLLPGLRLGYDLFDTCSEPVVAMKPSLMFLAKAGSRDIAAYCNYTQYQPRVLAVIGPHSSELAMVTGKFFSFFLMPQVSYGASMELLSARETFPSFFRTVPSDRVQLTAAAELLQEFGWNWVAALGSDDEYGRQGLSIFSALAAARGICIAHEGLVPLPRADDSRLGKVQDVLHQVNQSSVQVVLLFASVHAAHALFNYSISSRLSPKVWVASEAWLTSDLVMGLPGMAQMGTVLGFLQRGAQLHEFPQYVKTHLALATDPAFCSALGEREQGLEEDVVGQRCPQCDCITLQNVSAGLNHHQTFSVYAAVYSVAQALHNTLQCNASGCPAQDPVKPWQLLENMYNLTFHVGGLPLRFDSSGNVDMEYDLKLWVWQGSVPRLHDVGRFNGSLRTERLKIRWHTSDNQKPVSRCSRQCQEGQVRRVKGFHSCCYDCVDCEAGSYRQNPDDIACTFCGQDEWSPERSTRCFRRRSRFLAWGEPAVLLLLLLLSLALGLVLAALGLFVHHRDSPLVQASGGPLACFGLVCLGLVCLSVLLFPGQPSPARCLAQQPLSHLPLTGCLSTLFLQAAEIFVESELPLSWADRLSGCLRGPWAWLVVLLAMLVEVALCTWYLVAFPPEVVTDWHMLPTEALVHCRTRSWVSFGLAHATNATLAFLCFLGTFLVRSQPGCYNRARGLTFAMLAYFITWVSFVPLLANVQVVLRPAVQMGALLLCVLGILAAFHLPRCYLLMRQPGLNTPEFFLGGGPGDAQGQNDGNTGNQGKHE
Excerpt: (§1) We used a calcium imaging assay to establish dose–response curves for the sweet taste receptor hTAS1R2/hTAS1R3 and determine EC50 values for the sweet stimuli previously tested in spectrofluorimetric experiments. We cloned the cDNAs coding hTAS1R2 and hTAS1R3 subunits into pcDNA6 and pcDNA4 expression plasmids, respectively, and we added FLAG tag to C-terminus of each construct to measure protein expression level by immunocytochemistry as described previously. HEK293T cells stably transfected with Gα16gust44 were seeded at a density of 0.35 × 10^6 cells per well into 96-well black walled, clear bottom microtiter plates (Falcon) in high-glucose DMEM supplemented with 2 mM GlutaMAX, 10% dialyzed foetal bovine serum, penicillin/streptomycin and G418 (400 µg/mL) at 37 °C and 6.3% CO2, in a humidified atmosphere. After 48 h, the cells were transiently transfected with each TAS1R subunit (60 ng/well for each plasmid) and plasmid pGP-CMV-GCaMP6S (Addgene #40753, 50 ng per well) coding for a green fluorescent protein-based calcium indicator, using Fugene HD (0.4 µL/well). After a further 24 h incubation, the cells were washed twice with buffer C1 and then stimulated with sweet tasting compounds. After excitation at 488 nm, calcium responses were recorded at 510 nm using a Molecular Devices FlexStation 3 system. Acquisition was made simultaneously from 8 wells corresponding to the range of taste solutions. We averaged the responses of 18 wells receiving the same stimulus one three independent experiments. We subtracted the mean calcium traces of mock-transfected cells stimulated with the same concentration of stimulus. Plots of the fluorescence variation amplitude versus concentration were fitted by four-parameter logistic nonlinear regression allowing us to calculate the EC50 values of activation.

hTAS1R3 = biological target: T3, hTAS1R3 (Homo sapiens, UniProt Q7RTX0); test: Calcium assay (GCaMP6S) in HEK293T-Gα16gust44 cells transfected with hTAS1R3-FLAG alone; type: cell-based; conditions: HEK293T-Gα16gust44 cells transiently transfected with GCaMP6S and hTAS1R3-FLAG alone
T3 construct: expressed in transfected cells; host or cells: HEK293T cells stably expressing Gα16gust44, transiently transfected
T3 sequence (Q7RTX0 21-852): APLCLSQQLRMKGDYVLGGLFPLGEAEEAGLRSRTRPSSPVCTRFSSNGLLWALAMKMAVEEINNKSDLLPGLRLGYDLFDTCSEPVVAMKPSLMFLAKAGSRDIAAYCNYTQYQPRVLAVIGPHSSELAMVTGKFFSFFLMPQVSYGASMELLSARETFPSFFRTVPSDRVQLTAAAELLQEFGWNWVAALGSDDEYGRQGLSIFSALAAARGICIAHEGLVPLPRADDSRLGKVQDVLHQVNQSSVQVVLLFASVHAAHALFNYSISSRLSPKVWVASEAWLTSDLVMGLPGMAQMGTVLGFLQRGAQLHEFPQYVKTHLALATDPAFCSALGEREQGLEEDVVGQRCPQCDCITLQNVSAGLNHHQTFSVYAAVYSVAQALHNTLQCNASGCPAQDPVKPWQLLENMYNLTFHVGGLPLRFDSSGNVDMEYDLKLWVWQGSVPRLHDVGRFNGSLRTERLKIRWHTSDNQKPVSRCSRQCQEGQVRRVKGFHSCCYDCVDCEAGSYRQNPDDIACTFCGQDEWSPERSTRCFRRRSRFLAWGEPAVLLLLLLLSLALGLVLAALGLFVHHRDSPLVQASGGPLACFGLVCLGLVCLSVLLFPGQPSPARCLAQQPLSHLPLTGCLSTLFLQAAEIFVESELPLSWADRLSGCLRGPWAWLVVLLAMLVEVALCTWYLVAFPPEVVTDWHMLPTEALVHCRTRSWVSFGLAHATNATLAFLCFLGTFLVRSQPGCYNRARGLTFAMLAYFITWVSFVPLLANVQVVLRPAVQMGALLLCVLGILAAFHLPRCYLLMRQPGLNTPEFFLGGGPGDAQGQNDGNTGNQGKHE
Excerpt: as §1

| Kd (hTAS1R2 [1]) [µM] | EC50 (hTAS1R2 [2]) [µM] | EC50 (hTAS1R2/hTAS1R3) [µM] | EC50 hTAS1R3 (hTAS1R3) | Structure (SMILES) |
| --- | --- | --- | --- | --- |
| 373 ± 110 | 61 ± 13 | 2.54 ± 0.48 | n.r. | C=C(C)C1CC=C(/C=N/O)CC1 (stereo in doubt) [Perillartine, perillartine] |
| 164 ± 53 |  | 213 ± 59 | n.r. | CC1=CC(=O)NS(=O)(=O)O1 [Acesulfame-K, acesulfame-K] |

| Structure (SMILES) | Kd (hTAS1R2 [1]) [µM] | EC50 (hTAS1R2 [2]) [µM] | EC50 (hTAS1R2/hTAS1R3) [µM] | EC50 hTAS1R3 (hTAS1R3) |
| --- | --- | --- | --- | --- |
| O=S(=O)(O)NC1CCCCC1 [Cyclamate-Na, cyclamate-Na] |  |  | 767 ± 83 | n.r. |
